Data published in patent US5686424A, “2-oxoethyl derivatives as immunosuppressants” (Miles Inc., priority 1995, dated 1997).
Counter-ions that a name gives are not always drawn.

Legend:
FKBP = FKBP (Homo sapiens, UniProt P62942); experiment: PPIase Inhibition Assay; assay type: biochemical; conditions: concentration of inhibitor required for 50% inhibition of enzyme activity; FKBP, substrate Succinyl-Ala-Phe-Pro-Phe-para-nitroanilide; TABLE I
In short: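 Rates from p-nitroaniline release at 390 nm over 90 sec, fitted first-order, were converted to % activity remaining relative to uncatalyzed and uninhibited rates, with IC50 from linear regression of V-/V+ against inhibitor level. FKBP acted on Suc-Ala-Phe-Pro-Phe-pNA with excess chymotrypsin, HEPES pH 7.8, cold buffer.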

NF-AT = NF-AT Inhibition Assay Directed β-Galactosidase Expression in FGL-5 cells; assay type: cell-based; conditions: 50% inhibition of NF-AT directed β-galactosidase activity in FGL-5 cells stimulated with phorbol dibutyrate and ionomycin; TABLE 3
Procedure: 3) NF-AT Assay Stimulation of T-cells leads to the appearance of several transcription factors, including one designated "NF-AT". These factors are involved in regulation of gene expression required for immunologic activation. Some of these transcription factors appear to have functions in a wide variety of cell types. By contrast, NF-AT is found primarily in T-cells and its role is restricted to early gene activation. […] Inhibition of NF-AT activity is measured using FGL-5 cells. FGL-5 is a cloned line of stably transfected Jurkat T-cells that contain two construct in which three tandem copies of the NF-AT DNA binding site direct transcription of both murine CD8 and the lacZ gene, encoding β-galactosidase ([…] et al., 1990, Genes & Development 4:1823). When these cells are stimulated with phorbol esters which activate protein kinase C and calcium ionophore to raise the intracellular calcium concentration, transcriptionally active NF-AT is produced. In T-cells, this normally leads to the expression of IL-2, T-cell growth factor. However, in FGL-5 cells NF-AT activation leads to the production of β-galactosidase which can be detected using an appropriate substrate. […] NF-AT Inhibition Assay Directed β-Galactosidase Expression This assay was performed essentially as described (Bierer et al., 1990, Proc. Natl. Acad. Sci. 87:9231). […] The assays were done with exponentially growing cells whose density was not greater than 0.5 million cells/ml. The cells were resuspended to 3 million cells/ml in medium and 0.1 ml was added to wells of a 96-well plate. The compounds of the present invention were dissolved in either ethanol or dimethylsulfoxide at 10 mM and […] of various dilutions in medium were added to cells in duplicate wells. Treatment controls consisted of duplicate wells containing 0.5 ml/well of either medium, ethanol or dimethylsulfoxide. The ethanol and dimethyl sulfoxide were at the same concentration as was used for the compounds. […] Phorbol dibutyrate (Sigma) and Ionomycin (Calbiochem) were dissolved at 50 μg/ml and 2 mM, respectively and stored at -70° C. […] For unstimulated cell controls, 0.5 ml/well of medium was added to duplicate wells. The plates were incubated overnight (16-18 hours) at 37° C. in a humidified atmosphere of 5% CO2 and air. β-galactosidase activity was measured as the fluorescence generated by the cleavage of 4-methyl umbelliferyl-β-D-galactoside (Sigma) at the β-galactoside bond. After overnight incubation, the cells were centrifuged at 500×g for 3 minutes in the 96-well plates and washed 3 times with PBS. […] The percent inhibition by each concentration of the compounds was calculated as: […]

human T-cells = experiment: Suppression of Human T-Cell Proliferation Assay (PHA-stimulated, [3H]-thymidine incorporation); assay type: cell-based; conditions: concentration inhibiting [3H]-thymidine incorporation of PHA-stimulated T-cells by 50%, 72 hours; TABLE 2; read-out: IC50
In short: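 Read-out is scintillation counting of [3H]-thymidine pulsed for the last 6 h of a 72 h, 37° C culture. Human T-cells, isolated from LeukoPaks by Lymphoprep and sheep-erythrocyte rosetting, were PHA-M activated (40 μg/ml stock) with compound dilutions added in duplicate wells.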

Sequence of FKBP (P62942 whole entry): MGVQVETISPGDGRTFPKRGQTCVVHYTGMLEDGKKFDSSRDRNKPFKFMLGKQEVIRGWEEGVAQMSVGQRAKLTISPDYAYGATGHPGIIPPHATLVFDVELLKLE

Structure (SMILES)	IC50 (FKBP) [µM]	IC50 (NF-AT) [µM]	IC50 (human T-cells) [µM]
CC[C@H](C)[C@H](NC(=O)[C@@H]1CCCN1CC(=O)C1CCc2ccccc2O1)C(=O)NCc1ccccc1 (stereo partly drawn) [Example 99, L-Isoleucine, N-[1-(2-(Chroman-2-yl)-2-Oxoethyl)-L-Prolyl] Benzylamide Hydrochloride Salt]	5	> 15	> 15
CC[C@H](C)[C@H](NC(=O)[C@@H]1CCCN1CC(=O)c1cc2ccccc2o1)C(=O)NCc1ccccc1 [Example 100, L-Isoleucine, N-[1-(2-(Benzofuran-2-yl)-2-Oxoethyl)-L-Prolyl] Benzylamide Hydrochloride Salt]	> 5	> 15	> 15
CC[C@H](C)[C@H](NC(=O)[C@@H]1CCCN1CC(=O)c1cccc(OC(=O)c2ccccc2)c1)C(=O)NCc1ccccc1 [Example 101, L-Isoleucine, N-[1-(2-(3-Benzoyloxyphenyl)-2-Oxoethyl)-L-Prolyl] Benzylamide]	< 5	> 15	> 15
CC[C@H](C)[C@H](NC(=O)[C@@H]1CCCN1CC(=O)c1ccc(OC(=O)c2ccccc2)cc1)C(=O)NCc1ccccc1 [Example 102, L-Isoleucine, N-[1-(2-(4-Benzoyloxyphenyl)-2-Oxoethyl)-L-Prolyl] Benzylamide]	5	> 15	> 15
CC[C@H](C)[C@H](NC(=O)[C@@H]1CCCN1CC(=O)c1ccccc1OC(=O)c1ccccc1)C(=O)NCc1ccccc1 [Example 103, L-Isoleucine, N-[1-(2-(2-Benzoyloxyphenyl)-2-Oxoethyl)-L-Prolyl] Benzylamide]	< 5	> 15	> 15
CC[C@H](C)[C@H](NC(=O)[C@@H]1CCCN1CC(=O)c1cccc(Oc2ccccc2)c1)C(=O)NCc1ccccc1 [Example 104, L-Isoleucine, N-[1-(2-(3-Phenoxyphenyl)-2-Oxoethyl)-L-Prolyl] Benzylamide]	< 5	> 15	> 15
CC[C@H](C)[C@H](NC(=O)[C@@H]1CCCN1CC(=O)c1ccccc1Oc1ccccc1)C(=O)NCc1ccccc1 [Example 105, L-Isoleucine, N-[1-(2-(2-Phenoxyphenyl)-2-Oxoethyl)-L-Prolyl] Benzylamide]	< 5	> 15	> 15
CCOc1cc(C(=O)CN2CCC[C@H]2C(=O)N[C@H](C(=O)NCc2ccccc2)[C@@H](C)CC)cc(OCC)c1OCC [Example 106, L-Isoleucine, N-[1-(2-(3,4,5-Triethoxyphenyl)-2-Oxoethyl)-L-Prolyl] Benzylamide]	< 5	> 15	> 15
CC[C@H](C)[C@H](NC(=O)[C@@H]1CCCN1CC(=O)c1ccc2c(c1)OCO2)C(=O)NCc1ccccc1 [Example 107, L-Isoleucine, N-[1-(2-(Benzo[1,3]dioxol-5-yl)-2-Oxoethyl)-L-Prolyl] Benzylamide]	< 5	0.6	1
CC[C@H](C)[C@H](NC(=O)[C@@H]1CCCN1CC(=O)c1ccc(OCCOc2ccccc2)cc1)C(=O)NCc1ccccc1 [Example 108, L-Isoleucine, N-[1-{2-Oxo-2-[4-(2-Phenoxyethoxy)-Phenyl]-Ethyl}-L-Prolyl] Benzylamide]	< 5	> 15	> 15
CC[C@H](C)[C@H](NC(=O)[C@@H]1CCCN1CC(=O)c1ccc(Oc2ccccc2)cc1)C(=O)NCc1ccccc1 [Example 109, L-Isoleucine, N-[1-(2-(4-Phenoxyphenyl)-2-Oxoethyl)-L-Prolyl] Benzylamide]	< 5	> 15	5
CC[C@H](C)[C@H](NC(=O)[C@@H]1CCCN1CC(=O)c1c(OC)cc(OC)cc1OC)C(=O)NCc1ccccc1 [Example 110, L-Isoleucine, N-[1-(2-(2,4,6-Trimethoxyphenyl)-2-Oxoethyl)-L-Prolyl] Benzylamide]	< 5	> 15	6
CC[C@H](C)[C@H](NC(=O)[C@@H]1CCCN1CC(=O)c1cccc(OC)c1OC)C(=O)NCc1ccccc1 [Example 111, L-Isoleucine, N-[1-(2-(2,3-Dimethoxyphenyl)-2-Oxoethyl)-L-Prolyl] Benzylamide]	< 5	> 15	7
CC[C@H](C)[C@H](NC(=O)[C@@H]1CCCN1CC(=O)c1c(OC)cccc1OC)C(=O)NCc1ccccc1 [Example 112, L-Isoleucine, N-[1-(2-(2,6-Dimethoxyphenyl)-2-Oxoethyl)-L-Prolyl] Benzylamide]	< 5	> 15	7
CC[C@H](C)[C@H](NC(=O)[C@@H]1CCCN1CC(=O)C1(c2ccc(C)cc2)CCCCC1)C(=O)NCc1ccccc1 [Example 113, L-Isoleucine, N-[1-(2-(1-(4-Methylphenyl)cyclohexyl)-2-Oxoethyl)-L-Prolyl] Benzylamide]	< 5	> 15	8
CC[C@H](C)[C@H](NC(=O)[C@@H]1CCCN1CC(=O)C1(c2ccc(Cl)cc2)CCCCC1)C(=O)NCc1ccccc1 [Example 114, L-Isoleucine, N-[1-(2-(1-(4-Chlorophenyl)cyclohexyl)-2-Oxoethyl)-L-Prolyl] Benzylamide]	< 5	10	7
CC[C@H](C)[C@H](NC(=O)[C@@H]1CCCN1CC(=O)c1ccc(OC)c(OC)c1OC)C(=O)NCc1ccccc1 [Example 115, L-Isoleucine, N-[1-(2-(2,3,4-Trimethoxyphenyl)-2-Oxoethyl)-L-Prolyl] Benzylamide]	> 5	> 15	7
CC[C@H](C)[C@H](NC(=O)[C@@H]1CCCN1CC(=O)C1(c2ccccc2)CCCCC1)C(=O)NCc1ccccc1 [Example 116, L-Isoleucine, N-[1-(2-(1-Phenylcyclohexyl)-2-Oxoethyl)-L-Prolyl] Benzylamide]	< 5	14	6
CC[C@H](C)[C@H](NC(=O)[C@@H]1CCCN1CC(=O)c1cc(OC)c(OC)cc1OC)C(=O)NCc1ccccc1 [Example 117, L-Isoleucine, N-[1-(2-(2,4,5-Trimethoxyphenyl)-2-Oxoethyl)-L-Prolyl] Benzylamide]	< 5	> 15	> 15
COc1cc(C(=O)CN2CCC[C@H]2C(=O)NCc2ccccc2)cc(OC)c1OC [Example 120, L-Proline, 1-[2-(3,4,5-Trimethoxyphenyl)-2-Oxoethyl] Benzylamide Hydrochloride]	> 5	> 15	7
COc1cc(C(=O)CN2CCC[C@H]2C(=O)NCCc2ccccc2)cc(OC)c1OC [Example 121, L-Proline, 1-[2-(3,4,5-Trimethoxyphenyl)-2-Oxoethyl] 2-Phenethylamide Hydrochloride]	> 5	> 15	7
COc1cc(C(=O)CN2CCC[C@H]2C(=O)NCCCc2ccccc2)cc(OC)c1OC [Example 122, L-Proline, 1-[2-(3,4,5-Trimethoxyphenyl)-2-Oxoethyl] 3-Phenylpropylamide Hydrochloride]	> 5	> 15	8
COc1cc(C(=O)CN2CCC[C@H]2C(=O)NCCCCc2ccccc2)cc(OC)c1OC [Example 123, L-Proline, 1-[2-(3,4,5-Trimethoxyphenyl)-2-Oxoethyl] 4-Phenylbutylamide Hydrochloride]	> 5	> 15	10
COc1cc(C(=O)CN2CCC[C@H]2C(=O)NCCc2ccccn2)cc(OC)c1OC [Example 124, L-Proline, 1-[2-(3,4,5-Trimethoxyphenyl)-2-Oxoethyl] 2-(Pyrid-2-yl)ethylamide Dihydrochloride]	> 5	> 15	> 15
